Laboratory results taken from patent publication US9260408B2, “Dihydroquinoline-2-one derivatives” (Hoffmann-La Roche Inc., priority 2011, dated 2016).
pEC50: −log10 of the molar value. Structures can show the parent of a compound that is named as a salt.

Legend:
human CYP11B1 = biological target: T1, human CYP11B1 (Homo sapiens, UniProt P15538); assay: G-402 cellular enzyme assay, human CYP11B1 (cortisol release, HTRF); type: cell-based; conditions: G-402 cells expressing human CYP11B1; 1 μM Deoxycortisol
T1 construct: expressed in transfected cells
T1 sequence (P15538 25-503): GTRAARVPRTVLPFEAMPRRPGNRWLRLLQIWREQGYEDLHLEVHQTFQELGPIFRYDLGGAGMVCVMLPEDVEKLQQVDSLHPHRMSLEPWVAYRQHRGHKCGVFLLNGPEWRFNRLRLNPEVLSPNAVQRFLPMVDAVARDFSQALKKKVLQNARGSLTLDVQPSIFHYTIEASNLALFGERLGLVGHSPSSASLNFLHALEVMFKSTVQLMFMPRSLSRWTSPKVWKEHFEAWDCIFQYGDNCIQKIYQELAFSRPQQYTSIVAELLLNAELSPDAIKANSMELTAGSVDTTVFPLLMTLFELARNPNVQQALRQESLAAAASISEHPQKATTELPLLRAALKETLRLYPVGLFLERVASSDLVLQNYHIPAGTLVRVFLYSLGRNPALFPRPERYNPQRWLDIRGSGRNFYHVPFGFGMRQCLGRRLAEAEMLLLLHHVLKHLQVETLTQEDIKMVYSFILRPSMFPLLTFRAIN
How it was run: (§1)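 G-402 cells stably expressing human CYP11B2 or CYP11B1, in DMEM/F12 with 2.5% charcoal-treated FCS, were incubated 16 h with compound plus 1 μM deoxycorticosterone (CYP11B2) or 1 μM deoxycortisol (CYP11B1). Aldosterone or cortisol in the supernatant measured by HTRF; EC50 from a 4-parameter MMF fit.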

human CYP11B2 = biological target: T2, human CYP11B2 (Homo sapiens, UniProt P19099); assay: G-402 cellular enzyme assay, human CYP11B2 (aldosterone release, HTRF); type: cell-based; conditions: G-402 cells expressing human CYP11B2; 1 μM Deoxycorticosterone
T2 construct: expressed in transfected cells
T2 sequence (P19099 25-503): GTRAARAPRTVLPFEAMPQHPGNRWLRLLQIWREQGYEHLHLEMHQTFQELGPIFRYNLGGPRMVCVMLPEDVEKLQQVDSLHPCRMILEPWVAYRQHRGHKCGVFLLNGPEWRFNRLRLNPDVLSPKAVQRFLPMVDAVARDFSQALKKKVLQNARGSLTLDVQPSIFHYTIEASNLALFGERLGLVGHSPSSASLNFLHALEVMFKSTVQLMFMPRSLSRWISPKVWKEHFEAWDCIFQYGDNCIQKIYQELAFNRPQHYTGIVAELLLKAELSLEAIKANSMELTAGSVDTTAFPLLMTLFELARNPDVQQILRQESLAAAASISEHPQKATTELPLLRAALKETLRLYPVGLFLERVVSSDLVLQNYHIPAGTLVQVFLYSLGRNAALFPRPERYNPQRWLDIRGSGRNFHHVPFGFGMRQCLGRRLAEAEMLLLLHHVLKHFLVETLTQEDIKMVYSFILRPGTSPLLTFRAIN
How it was run: as §1

Row | Structure (SMILES) | pEC50 (human CYP11B1) | pEC50 (human CYP11B2)
1 | CN1C(=O)CCc2cc(-c3cccnc3)ncc21 [Example 35, 1-Methyl-6-pyridin-3-yl-3,4-dihydro-1H-[1,7]naphthyridin-2-one] | < 5.00 | 6.49
2 | CCC1(NCc2cncc(-c3ccc4c(c3)CCC(=O)N4C)c2)COC1 [Example 206, 6-{5-[(3-Ethyl-oxetan-3-ylamino)-methyl]-pyridin-3-yl}-1-methyl-3,4-dihydro-1H-quinolin-2-one] | 6.63 | 8.00
3 | CCC(=O)NC(C)c1cncc(-c2cc3c(cc2F)N(C)C(=O)CC3)c1 (racemic) [Example 213, (rac)-N-{1-[5-(7-Fluoro-1-methyl-2-oxo-1,2,3,4-tetrahydro-quinolin-6-yl)-pyridin-3-yl]-ethyl}-propionamide] | 6.08 | 7.39
4 | CN(Cc1cncc(-c2ccc3c(c2)CCC(=O)N3C)c1)C(=O)c1ncccc1Cl [Example 196, 3-Chloro-pyridine-2-carboxylic acid methyl-[5-(1-methyl-2-oxo-1,2,3,4-tetrahydro-quinolin-6-yl)-pyridin-3-ylmethyl]-amide] | 6.29 | 8.10
5 | Cc1c(CNC(=O)c2ncccc2Cl)cncc1-c1ccc2c(c1)CCC(=O)N2C [Example 224, 3-Chloro-pyridine-2-carboxylic acid [4-methyl-5-(1-methyl-2-oxo-1,2,3,4-tetrahydro-quinolin-6-yl)-pyridin-3-ylmethyl]-amide] | 6.76 | 8.22
6 | CCS(=O)(=O)N[C@H]1CC[C@H](Oc2cncc(-c3ccc4c(c3)CCC(=O)N4C)c2)CC1 [Example 172, Ethanesulfonic acid {(trans)-4-[5-(1-methyl-2-oxo-1,2,3,4-tetrahydro-quinolin-6-yl)-pyridin-3-yloxy]-cyclohexyl}-amide] | 7.16 | 9.00
7 | CN1C(=O)CCc2cc(-c3cncc(CNC(=O)C4CC4)c3)ccc21 [Example 41, Cyclopropanecarboxylic acid [5-(1-methyl-2-oxo-1,2,3,4-tetrahydro-quinolin-6-yl)-pyridin-3-ylmethyl]-amide] | 5.25 | 7.17
8 | CCN(Cc1cncc(-c2ccc3c(c2)CCC(=O)N3C)c1)S(=O)(=O)CC [Example 181, Ethanesulfonic acid ethyl-[5-(1-methyl-2-oxo-1,2,3,4-tetrahydro-quinolin-6-yl)-pyridin-3-ylmethyl]-amide] | 5.63 | 7.60
9 | CN1C(=O)CCc2cc(-c3cncc(CN4CCS(=O)(=O)CC4)c3)ccc21 [Example 20] | 7.70 | 8.52
10 | CN1C(=O)CCc2cc(-c3cncc(CNS(=O)(=O)CC(F)(F)F)c3)ccc21 [Example 162, 2,2,2-Trifluoro-ethanesulfonic acid [5-(1-methyl-2-oxo-1,2,3,4-tetrahydro-quinolin-6-yl)-pyridin-3-ylmethyl]-amide] | 5.54 | 7.21
11 | CCNC[C@@H]1CCCN1c1cncc(-c2ccc3c(c2)CCC(=O)N3C)c1 [Example 9, 6-[5-((S)-2-Ethylaminomethyl-pyrrolidin-1-yl)-pyridin-3-yl]-1-methyl-3,4-dihydro-1H-quinolin-2-one] | < 5.00 | 6.08
12 | CN1C(=O)CCc2cc(-c3cncc(CN4CCCS4(=O)=O)c3)ccc21 [Example 179, 6-[5-(1,1-Dioxo-1λ^6-isothiazolidin-2-ylmethyl)-pyridin-3-yl]-1-methyl-3,4-dihydro-1H-quinolin-2-one] | 6.77 | 7.92
13 | CN1C(=O)CCc2cc(-c3cncc(O[C@H]4CCCN(C(=O)OC(C)(C)C)C4)c3)ccc21 [Example 49, (S)-3-[5-(1-Methyl-2-oxo-1,2,3,4-tetrahydro-quinolin-6-yl)-pyridin-3-yloxy]-piperidine-1-carboxylic acid tert-butyl ester] | 6.00 | 6.57
14 | Cc1oncc1C(=O)NCc1cncc(-c2ccc3c(c2)CCC(=O)N3C)c1 [Example 101] | 6.75 | 8.70
15 | CN1C(=O)CCc2cc(-c3cncc(OC4CCNCC4)c3)ccc21 [Example 62, 1-Methyl-6-[5-(piperidin-4-yloxy)-pyridin-3-yl]-3,4-dihydro-1H-quinolin-2-one hydrochloride] | 5.07 | 6.75
16 | CN1C(=O)CCc2cc(-c3cncc(CNC(=O)c4ncoc4C4CC4)c3)ccc21 [Example 110] | 6.73 | 8.22
17 | CN1C(=O)CCc2cc(-c3cncc(CNS(=O)(=O)c4ccc(Cl)c(Cl)c4)c3)ccc21 [Example 156, 3,4-Dichloro-N-[5-(1-methyl-2-oxo-1,2,3,4-tetrahydro-quinolin-6-yl)-pyridin-3-ylmethyl]-benzenesulfonamide] | 5.86 | 6.81
18 | CN1C(=O)CCc2cc(-c3cncc(O[C@@H]4CCN(C(=O)OC(C)(C)C)C4)c3)ccc21 [Example 53, (R)-3-[5-(1-Methyl-2-oxo-1,2,3,4-tetrahydro-quinolin-6-yl)-pyridin-3-yloxy]-pyrrolidine-1-carboxylic acid tert-butyl ester] | 6.34 | 8.10
19 | CN1C(=O)CCc2cc(-c3cncc(CNC(=O)c4cncnc4)c3)ccc21 [Example 86] | 6.97 | 8.40
20 | CN1C(=O)CCc2cc(-c3cncc(OC4CNC4)c3)ccc21 [Example 70, 6-[5-(Azetidin-3-yloxy)-pyridin-3-yl]-1-methyl-3,4-dihydro-1H-quinolin-2-one hydrochloride] | 4.81 | 6.69
21 | O=C1CCc2nc(-c3cccnc3)ccc2N1 [Example 33, 6-Pyridin-3-yl-3,4-dihydro-1H-[1,5]naphthyridin-2-one] | < 5.00 | 5.90
22 | CN1C(=O)CCc2cc(-c3cncc(CNC(=O)c4nccn4C)c3)ccc21 [Example 83] | 7.34 | 8.05
23 | CCS(=O)(=O)N1CC[C@H]1COc1cncc(-c2ccc3c(c2)CCC(=O)N3C)c1 [Example 165, 6-[5-((S)-1-Ethanesulfonyl-azetidin-2-ylmethoxy)-pyridin-3-yl]-1-methyl-3,4-dihydro-1H-quinolin-2-one] | 6.31 | 7.89
24 | CCC(=O)NCc1cncc(-c2ccc3c(c2)CCC(=O)N3C)c1 [Example 37, N-[5-(1-Methyl-2-oxo-1,2,3,4-tetrahydro-quinolin-6-yl)-pyridin-3-ylmethyl]-propionamide] | 5.80 | 7.36
25 | COc1ncc(C(=O)NCc2cncc(-c3ccc4c(c3)CCC(=O)N4C)c2)cn1 [Example 82] | 7.70 | 8.10
26 | Cc1c(CN)cncc1-c1ccc2c(c1)CCC(=O)N2C [Example 222, 6-(5-Aminomethyl-4-methyl-pyridin-3-yl)-1-methyl-3,4-dihydro-1H-quinolin-2-one hydrochloride] | 6.00 | 8.40
27 | CC(N[S@+]([O-])C(C)(C)C)c1cncc(-c2ccc3c(c2)CCC(=O)N3C)c1 (single isomer, unassigned) [Example 56, (R)-2-Methyl-propane-2-sulfinic acid {(S or R)-1-[5-(1-methyl-2-oxo-1,2,3,4-tetrahydro-quinolin-6-yl)-pyridin-3-yl]-ethyl}-amide] | 6.23 | 7.40
28 | COC[C@@H]1CCCN1Cc1cncc(-c2ccc3c(c2)CCC(=O)N3C)c1 [Example 21] | 6.59 | 7.68
